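96-well plates; 48 h exposure; 5 concentrations. Endpoints by linear interpolation between flanking doses. Not reached: highest tested concentration assigned. At the GI50, growth is halved. TGI: total growth inhibition.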

Assay in all cases: growth of human tumour cells (NCI), 48 h
The test system of assay [1] is HCT-116 colon.
Assay [2] has as its system NCI-H23 lung.
The subject of assay [3] is NCI-H522 lung.
For assay [4], the system named is COLO 205 colon.
Assay [5] concerns SK-OV-3 ovarian.
The subject of assay [6] is SK-MEL-28 melanoma.
For assay [7], the system named is OVCAR-8 ovarian.
Assay [8] deals with A549 NSCLC.
The subject of assay [9] is SR leukemia.
The subject of assay [10] is IGROV1 ovarian.

Turning to `COc1ccc2c(c1)cn1c3ccc(O)cc3[nH]c(=O)c21`, the GI50 in assay [1] is 0.0567 µM; in assay [2] it was 0.292 µM; in [3] it was 0.0442 µM; in assay [4] it was 0.409 µM; in [5] it was 0.202 µM; in assay [6], 0.147 µM. The GI50 was 0.428 µM in [7], 0.301 µM in [8], 0.0543 µM in assay [9] and 0.338 µM in assay [10]. Also, the TGI worked out at 1.61 µM in assay [1]; 15.5 µM in assay [2]; 1.24 µM in assay [3]; 2.83 µM in assay [4]; 12.8 µM in [5]; 6.33 µM in [6]. The TGI in [7] turned out to be 2.82 µM; in assay [8], 1.82 µM; in [9], 2.7 µM; in assay [10], 4.77 µM.
`COc1cc(C2=NN(c3ccc(S(N)(=O)=O)cc3)C(c3ccc(Cl)cc3)C2)cc(OC)c1OC` (stereo not given): the GI50 in assay [1] was 3.41 µM; in assay [2], 5.72 µM; in [3], 3.03 µM; in [4], 3.52 µM; in assay [5], 6.91 µM; in [6], 3.78 µM. The GI50 in [7] is 4.85 µM; in [8], 4 µM; in [9] it was 4.37 µM; in assay [10], 8.09 µM. Further, the TGI in assay [1] was over 100 µM; in assay [2], over 100 µM; in assay [3], over 100 µM; in assay [4], 12.2 µM; in assay [5], over 100 µM; in [6], over 100 µM. The TGI in assay [7], in assay [8], in [9] and in [10] was over 100 µM each time.
As for `O=C(CNc1ncco1)Nc1ccc(S(=O)(=O)c2ccc(NC(=O)CNc3ncco3)cc2)cc1`, the GI50 was 1.42 µM in [1]; 2.46 µM in assay [2]; 1.48 µM in [3]; 1.75 µM in assay [4]; 10.5 µM in assay [5]; 2.38 µM in [6]. Further, the GI50 is 2.4 µM in assay [7], 2.2 µM in assay [8], 2.36 µM in [9] and 1.76 µM in assay [10]. Further, the TGI in [1] came out at 2.98 µM; in assay [2], 9.51 µM; in [3] it was 3.14 µM; in assay [4] it was 3.55 µM; in assay [5], 24.1 µM; in assay [6] it was 5.51 µM. In addition, the TGI in [7] worked out at 15.7 µM; in assay [8], 6.42 µM; in assay [9], 5.35 µM; in [10], 5.32 µM.
On to `COc1ccc(-c2nnc(N3CCN(C(=O)CN4CCN(c5ccc(Cl)cc5)CC4)CC3)nc2-c2ccc(OC)cc2)cc1`, for which the GI50 in assay [1] was 5.99 µM; in assay [2] it was 24.4 µM; in assay [3] it was 22.4 µM; in [4], 16.9 µM; in assay [5], 36.6 µM; in assay [6], over 100 µM. In addition, the GI50 in assay [7] is 35.8 µM; in [8] it was 27.4 µM; in assay [9] it was 31.5 µM; in [10], 29.4 µM. Further, the TGI in [1], in assay [2], in assay [3], in assay [4], in assay [5] and in assay [6] was over 100 µM in each case. The TGI in assay [7], in assay [8], in [9] and in assay [10] was over 100 µM throughout.
Turning to `OCC#Cc1ccccc1C#Cc1ccc(C#Cc2ccccc2C#CCO)s1`, the GI50 in [1] was 24.2 µM; in assay [2], 18.3 µM; in [3], 11.7 µM; in assay [4], 17.9 µM; in assay [5], 15.9 µM; in assay [6], 20.5 µM. Besides, the GI50 is 21.2 µM in assay [7], 19.1 µM in assay [8], 36.9 µM in [9] and 13.7 µM in assay [10]. Besides, the TGI came out at 50.1 µM in [1]; 33.4 µM in [2]; 29.2 µM in assay [3]; 48.5 µM in assay [4]; 34.4 µM in assay [5]; 46.8 µM in assay [6]. The TGI was 45.6 µM in assay [7], 41 µM in assay [8], over 100 µM in [9] and 34.2 µM in [10].
Consider `CCCCCC(O)(CCCCC)CCCCCCCCC1=C(O)c2[nH]c(=O)ccc2C(=O)C1=O`, for which the TGI in assay [1] is 16.4 µM; in [2], 7.73 µM; in [3] it was 20.8 µM; in [4] it was 31.9 µM; in [5], 29.6 µM; in assay [6], 20.7 µM. In addition, the TGI in [7] is 23.1 µM; in assay [8], 26.3 µM; in [9], 96.7 µM; in assay [10], 18.9 µM.
As to `O=S(=O)(NCCNc1cc(-c2cn(-c3ccccc3)nc2-c2cccc(O)c2)ccn1)c1ccc(Cl)cc1`, the GI50 in assay [1] is 2.69 µM; in [2], 3.07 µM; in assay [3] it was 2.16 µM; in assay [4], 1.87 µM; in assay [5] it was 3.62 µM; in assay [6], 2.2 µM. The GI50 in [7] was 3.72 µM; in assay [8] it was 3.89 µM; in assay [9], 1.71 µM; in assay [10], 3.82 µM. Moreover, the TGI in [1] stood at 11.4 µM; in assay [2], 13.4 µM; in [3] it was 5.79 µM; in assay [4], 4 µM; in assay [5] it was 19.6 µM; in [6], 5.42 µM. For the same molecule, the TGI in assay [7] turned out to be 22.6 µM; in [8], 18.8 µM; in assay [9], 5.07 µM; in assay [10] it was 24.2 µM.
On to `C[C@]12C3CC[C@@]4(CO)C[C@]3(CCC1[C@](C)(C(=O)O)CC[C@@H]2O)CC4=O` (stereo not given in full), for which the GI50 in assay [1], in [2], in [3], in [4], in [5] and in assay [6] was over 100 µM throughout. Further, the GI50 in assay [7], in assay [8], in assay [9] and in [10] was over 100 µM throughout. The TGI in assay [1], in assay [2], in [3], in assay [4], in assay [5] and in [6] was over 100 µM in each case. Moreover, the TGI in [7], in [8], in [9] and in assay [10] was over 100 µM throughout.
In the case of `O=C(Nc1ccc(Cl)cc1)c1cc(S(=O)(=O)Nc2nnc(-c3ccccc3)c(-c3ccccc3)n2)c(SCc2ccccc2)cc1Cl`, the GI50 is 19.8 µM in assay [1]; 24.6 µM in [2]; 43.9 µM in [3]; 23.8 µM in assay [4]; over 44.2 µM in assay [5]; 28.9 µM in assay [6]. For the same molecule, the GI50 was 31.8 µM in [7], 37.2 µM in assay [8], 28.9 µM in assay [9] and 33.6 µM in assay [10]. Besides, the TGI was 46.5 µM in [1]; 53.7 µM in assay [2]; over 71.2 µM in [3]; over 60.3 µM in [4]; over 60.7 µM in assay [5]; over 73.6 µM in assay [6]. For the same molecule, the TGI in assay [7] was over 71 µM; in assay [8] it was over 62.2 µM; in [9], over 57.3 µM; in [10], over 95.4 µM.
In the case of `COc1cc(-c2cc(/C=C3\C(=O)Nc4ccccc43)[nH]n2)cc(OC)c1OC`, the GI50 in assay [1] was 2.74 µM; in assay [2], 2.78 µM; in assay [3], 1.99 µM; in assay [4], 2.47 µM; in [5], 5 µM; in [6], 2.95 µM. Besides, the GI50 was 2.5 µM in assay [7], 3.36 µM in [8], 2.89 µM in assay [9] and 3.14 µM in assay [10]. Further, the TGI in assay [1] was 11.1 µM; in assay [2], 8.95 µM; in assay [3], 6.3 µM; in assay [4] it was 7.02 µM; in assay [5], 26.7 µM; in assay [6], 11.3 µM. The TGI in assay [7] is 7.48 µM; in [8], 13 µM; in [9], 14.8 µM; in assay [10] it was 14.8 µM.
As to `Cc1cc(C)c2c(SCc3ccc(Cl)cc3Cl)nc(N)nc2n1`, the TGI in [1] was over 100 µM; in assay [2] it was over 100 µM; in assay [3] it was 57.1 µM; in [4] it was over 100 µM; in assay [5], over 100 µM; in assay [6] it was over 100 µM. The TGI in assay [7], in [8], in assay [9] and in [10] was over 100 µM throughout.

The values are drawn from PubChem BioAssay (NCI).
